From patent publication US20230165251A1, “SUBSTITUTED TOLYL FUNGICIDES AND THEIR MIXTURES” (FMC Corporation, priority 2020, published 2023)
Like-named read-outs stand apart in the source and are kept apart here.

What was measured:
[1] = system: Zymoseptoria tritici; assay: Test A: preventive spray on wheat seedlings, wheat leaf blotch; format: in vivo; conditions: Rate 250 ppm
From the text: (§1) General protocol for preparing test suspensions for Tests A-F: the test compounds were first dissolved in acetone in an amount equal to 3% of the final volume and then suspended at the desired concentration (in ppm) in acetone and purified water (50/50 mix by volume) containing 250 ppm of the surfactant PEG400 (polyhydric alcohol esters). The resulting test suspensions were then used in Tests A-F.
(§2) The test solution was sprayed to the point of run-off on wheat seedlings. The following day the seedlings were inoculated with a spore suspension of Zymoseptoria tritici (the causal agent of wheat leaf blotch) and incubated in a saturated atmosphere at 24° C. for 48 h, and then moved to a growth chamber at 20° C. for 17 days, after which time disease ratings were made.
(§3) A rating of 100 indicates 100% disease control and a rating of 0 indicates no disease control (relative to the controls). A dash (-) indicates the compound was not tested.

[2] = system: Puccinia recondita f. sp. tritici; assay: Test B: preventive spray on wheat seedlings, wheat leaf rust; format: in vivo; conditions: for pest or weed control at 10 ppm: Puccinia recondita, 192 h, Rate 10 ppm, read-out: Test B disease control rating
From the text: as §1
as §2, with “Puccinia recondita f. sp.” for “Zymoseptoria”, “rust)” for “blotch)”, “20°” for “24°”, “24” for “48”, “7” for “17”
as §3

[3] = system: Blumeria graminis f. sp. tritici; assay: Test C: preventive spray on wheat seedlings, wheat powdery mildew; format: in vivo; conditions: Rate 250 ppm
From the text: as §1
The test suspension was sprayed to the point of run-off on wheat seedlings. The following day the seedlings were inoculated with a spore dust of Blumeria graminis f. sp. tritici, (also known as Erysiphe graminis f. sp. tritici, the causal agent of wheat powdery mildew) and incubated in a growth chamber at 20° C. for 8 days, after which time visual disease ratings were made.
as §3

[4] = system: Phakopsora pachyrhizi; assay: Test D: preventive spray on soybean seedlings, Asian soybean rust; format: in vivo; conditions: for pest or weed control at 10 ppm: Phakopsora pachyrhizi, 216 h, Rate 10 ppm, read-out: Test D disease control rating
From the text: as §1
(§4) The test solution was sprayed to the point of run-off on soybean seedlings. The following day the seedlings were inoculated with a spore suspension of Phakopsora pachyrhizi (the causal agent of Asian soybean rust) and incubated in a saturated atmosphere at 22° C. for 24 h and then moved to a growth chamber at 22° C. for 8 days, after which time visual disease ratings were made.
as §3

[5] = system: Botrytis cinerea; assay: Test E: preventive spray on tomato seedlings, tomato Botrytis; format: in vivo; conditions: Rate 250 ppm
From the text: as §1
(§5) The test suspension was sprayed to the point of run-off on tomato seedlings. The following day the seedlings were inoculated with a spore suspension of Botrytis cinerea (the causal agent of tomato Botrytis) and incubated in a saturated atmosphere at 20° C. for 48 h, and then moved to a growth chamber at 24° C. for 3 days, after which time visual disease ratings were made.
as §3

[6] = system: Alternaria solani; assay: Test F: preventive spray on tomato seedlings, tomato early blight; format: in vivo
From the text: as §1
as §5, with “Alternaria solani” for “Botrytis cinerea”, “early blight)” for “Botrytis)”, “27°” for “20°”, “20°” for “24°”
as §3

[7] = system: Phakopsora pachyrhizi; assay: Test G: Compound 41 or 63 alone and in mixtures on soybean seedlings, Asian soybean rust, Colby synergy; format: in vivo; conditions: for pest or weed control at 0.403 ppm / pest or weed control at 0.652 ppm: Phakopsora pachyrhizi, read-out: Test G Obsd; for pest or weed control at 0.403 ppm: Compound 63 0.403 ppm alone; for pest or weed control at 0.652 ppm: Compound 63 0.652 ppm alone
From the text: The general protocol for preparing test compositions for TEST G was as follows: Compound 41, Compound 63, N-(2,2,2-trifluoroethyl)-2-[[4-[5-(trifluoromethyl)-1,2,4-oxadiazol-3-yl]phenyl]methyl]-4-oxazolecarboxamide (b54.11a), ethyl 1-[[4-[[(1Z)-2-ethoxy-3,3,3-trifluoro-1-propen-1-yl]oxy]phenyl]methyl]-1H-pyrazole-4-carboxylate (b54.11c), ethyl 1-[[4-[[2-(trifluoromethyl)-1,3-dioxolan-2-yl]methoxy]phenyl]methyl]-1H-pyrazole-4-carboxylate (b54.11d), azoxystrobin, benzovindiflupyr, bixafen, chlorothalonil, cyproconazole, epoxiconazole, fenpropidin, fenpropimorph, fluindapyr, flutriafol, fluxapyroxad, inpyrfluxam, picoxystrobin, prothioconazole, pydiflumetofen, tebuconazole and trifloxystrobin were obtained as unformulated, technical-grade materials. Copper hydroxide and mancozeb was obtained as a formulated product marketed under the trademarks KOCIDE 3000 and MANZATE, respectively. Unformulated materials were first dissolved in acetone and then suspended at the desired concentration (in ppm) in acetone and purified water (50/50 mix by volume) containing 250 ppm of the surfactant Trem® 014 (polyhydric alcohol esters). Formulated materials were dispersed in sufficient water to give the desired concentration, and neither organic solvent nor surfactant was added to the suspension. The resulting test mixtures were then used in TEST G. The tests were run on four individual plants and the results reported as the mean average of the four plants.
The presence of a synergistic effect between two active ingredients was established with the aid of the Colby equation (see Colby, S. R. “Calculating Synergistic and Antagonistic Responses of Herbicide Combinations”, Weeds, (1967), 15, 20-22):
Using the method of Colby, the presence of a synergistic interaction between two active ingredients is established by first calculating the predicted activity, p, of the mixture based on activities of the two components applied alone. If p is lower than the experimentally established effect, synergism has occurred. In the equation above, A is the fungicidal activity in percentage control of one component applied alone at rate x. The B term is the fungicidal activity in percentage control of the second component applied at rate y. The equation estimates p, the expected fungicidal activity of the mixture of A at rate x with B at rate y if their effects are strictly additive and no interaction has occurred.
as §4, with “mixture” for “solution”
Results for TEST G are given below in Tables B-1 through J-1 for Compound 41, and Tables B-2 through J-2 for Compound 63. Each table corresponds to a set of evaluations performed together at the same time. In each table, a rating of 100 indicates 100% disease control and a rating of 0 indicates no disease control (relative to the controls). Columns labeled “Obsd” indicate the average of results observed from test run on four individual plants. Columns labeled “Exp” indicate the expected value for each treatment mixture using the Colby equation.

COC(=O)NCc1cc(-c2cn(-c3c(F)cc(F)cc3Cl)nn2)ccc1C [compound 122]
Test A disease control rating [1]: 71% | Test B disease control rating ([2]; Rate 250 ppm): 99% | Test C disease control rating [3]: 0% | Test D disease control rating ([4]; Rate 250 ppm): 100% | Test E disease control rating [5]: 0% | Test F disease control rating ([6]; Rate 250 ppm): 0%

COC(=O)NCc1cc(-c2ncn(-c3c(F)cc([N+](=O)[O-])cc3F)n2)ccc1C [Compound 107]
Test F disease control rating ([6]; Rate 250 ppm): 0%

COC(=O)NCc1cc(-c2cnn(-c3c(F)cc([N+](=O)[O-])cc3F)n2)ccc1C [Compound 118, methyl N-[[5-[2-(2,6-difluoro-4-nitrophenyl)-2H-1,2,3-triazol-4-yl]-2-methylphenyl]methyl]carbamate]
Test F disease control rating ([6]; Rate 250 ppm): 0%

COC(=O)NCc1cc(-c2ccn(-c3c(F)cc(C(C)C)cc3F)n2)ccc1C [Compound 63, methyl N-[[5-[1-[2,6-difluoro-4-(1-methylethyl)phenyl]-1H-pyrazol-3-yl]-2-methylphenyl]methyl]carbamate]
Test F disease control rating ([6]; Rate 10 ppm): 85% | pest or weed control at 0.403 ppm ([7]; Table B-2): 34% | pest or weed control at 0.652 ppm ([7]; Table B-2): 68% | pest or weed control at 0.403 ppm ([7]; Table C-2): 15% | pest or weed control at 0.652 ppm ([7]; Table C-2): 46%

COC(=O)NCc1cc(-c2ccn(-c3c(F)cc(C(F)(F)F)cc3F)n2)ccc1C [Compound 64, methyl N-[[5-[1-[2,6-difluoro-4-(trifluoromethyl)phenyl]-1H-pyrazol-3-yl]-2-methylphenyl]methyl]carbamate]
Test F disease control rating ([6]; Rate 10 ppm): 0%

COC(=O)NCc1cc(-c2ccn(-c3c(F)cc(Cl)cc3F)n2)ccc1C [Compound 6, methyl N-[[5-[1-(4-chloro-2,6-difluorophenyl)-1H-pyrazol-3-yl]-2-methylphenyl]methyl]carbamate]
Test F disease control rating ([6]; Rate 10 ppm): 40%

COC(=O)NCc1cc(-c2ccn(-c3c(F)cc(OC(F)F)cc3F)n2)ccc1C [Compound 15, methyl N-[[5-[1-[4-(difluoromethoxy)-2,6-difluorophenyl]-1H-pyrazol-3-yl]-2-methylphenyl]methyl]carbamate]
Test F disease control rating ([6]; Rate 10 ppm): 0%

CO/N=C(\C)c1cc(F)c(-n2ncc(-c3ccc(C)c(CNC(=O)OC)c3)n2)c(F)c1 [Compound 142, methyl (E)-N-[[5-[2-[2,6-difluoro-4-[1-(methoxyimino)ethyl]phenyl]-2H-1,2,3-triazol-4-yl]-2-methylphenyl]methyl]carbamate]
pest or weed control at 10 ppm [2]: 86% | pest or weed control at 10 ppm [4]: 100% | melting point: 104 to 108 °C

Cn1cc(C(=O)Nc2ccccc2-c2cc(F)c(F)c(F)c2)c(C(F)F)n1 [Fluxapyroxad, fluxapyroxad]
Test G Obsd ([7]; Table C-1, fluxapyroxad 2.757 ppm alone): 19% | Test G Obsd ([7]; Table C-1, fluxapyroxad 4.748 ppm alone): 52% | Test G Obsd ([7]; Table C-2, fluxapyroxad 2.757 ppm alone): 19% | Test G Obsd ([7]; Table C-2, fluxapyroxad 4.748 ppm alone): 52%

O=C(NCC(F)(F)F)c1coc(Cc2ccc(-c3noc(C(F)(F)F)n3)cc2)n1 [(b54.11a)]
Test G Obsd ([7]; Table B-1, (b54.11a) 0.471 ppm alone): 59% | Test G Obsd ([7]; Table B-1, (b54.11a) 0.764 ppm alone): 75%

COC(=O)NNc1cc(-c2ccn(-c3c(F)cc(Cl)cc3F)n2)ccc1C [Compound 153]
pest or weed control at 10 ppm [2]: 68% | pest or weed control at 10 ppm [4]: 91% | melting point: 153 to 156 °C

Cn1cc(C(=O)Nc2cccc3c2[C@@H]2CC[C@H]3C2=C(Cl)Cl)c(C(F)F)n1 (racemic) [Benzovindiflupyr, benzovindiflupyr]
Test G Obsd ([7]; benzovindiflupyr alone 0.606 ppm): 67% | Test G Obsd ([7]; benzovindiflupyr alone 0.980 ppm): 67%
